Experimental data as given in patent US7423019B2, “Agent for inducing conversion of intestinal cells into insulin-producing cells and antidiabetic drug” (Ajinomoto Co., Inc., priority 2003, dated 2008).
“Also recorded” adds a separate entry of the source.

Tests used:
GLP-1R = assay: Experiment of inhibiting GLP-1 function with exendin (9-39), RT-PCR in jejunal cells; assay type: cell-based, mouse; settings: 8 days
Experimental: Jejunal cells were cultured by the same way as that of paragraph <1>, except that 0, 10, 100, or 1,000 nmol/l of exendin (9-39), which was a GLP-1R antagonist, was simultaneously added together with GLP-1(1-37) (10 nmol/l). Then, the expression amounts of the insulin gene and other various kinds of genes were analyzed (a culture period of 8 days).

[1] = system: pancreas, stomach, liver, and duodenal cells; assay: Primary culture of embryonal mouse pancreas, stomach, liver and duodenal cells, double stain with antibodies to insulin and glucagon; assay type: cell-based; settings: 10 nmol/l, cultured 8 days
Experimental: (§1) Cells originating from various kinds of tissues of a 17.5 day-old embryonal mouse were divided into a group added with GLP-1(1-37) (10 nmol/l) or GLP-1(7-37) (10 nmol/l) and a non-addition control group, and were then cultured. After the cells had been cultured for 8 days, a double stain was performed using antibodies to insulin and glucagon. Specifically, the process was performed as follows.
(§2) Specimens of pancreas, liver, stomach, duodenum, and small intestine (including the jejunum, ileum, and colon) tissues were collected from a 17.5 day-old C57BL/6 embryonal mouse under a microscope. Then, those tissues were immersed in a Hanks solution (Hanks Balanced Solution, Gibco BRL, Co., Ltd., without containing Ca) containing 5 mM of CaCl2 (pH 7.4) and 0.1% of collagenase, and were then incubated at 37° C. for 10 to 20 minutes, followed by gently pipetting for digestion, respectively.
The obtained cells were washed with a culture medium and then inoculated in a 6-well plate for tissue culture at a cell density of 5×10^4 cells/cm^2. After 24 hours from the start of the culture, GLP-1(1-37) or GLP-1(7-37) was added to the culture. […]

intestinal cells = assay: Primary culture of embryonal mouse intestinal cells, double stain with antibodies to insulin and glucagon; assay type: cell-based; settings: 10 nmol/l, cultured 8 days; for generation of insulin-positive cells in intestinal cells: 17.5 day-old embryonal mouse cells
Experimental: as §1, §2
The obtained cells were washed with a culture medium and then inoculated in a 6-well plate for tissue culture at a cell density of 5×10^4 cells/cm^2. After 24 hours from the start of the culture, GLP-1(1-37) or GLP-1(7-37) was added to the culture. Furthermore, after the cells had been continuously cultured for 8 days, the cells were washed three times with phosphate buffer (hereinafter, referred to as “PBS”) and then fixed by immersing in a 4% paraformaldehyde-phosphate buffer for 5 minutes and a 25% acetone/methanol solution for 1 minute. It should be noted that GLP-1(1-37) and GLP-1(7-37) were purchased from SIGMA.
Subsequently, each well was washed with 0.05% Tween 20/PBS, followed by immersing in 0.2% Triton X100 for 1 hour. After that, anti-insulin goat antibody (Santa Cruz) and anti-glucagon mouse antibody (Sigma) were added to each well, and the whole was incubated at 4° C. for 16 hours, followed by washing the well. Then, Alexa 488-binding anti-goat IgG donkey antibody (Molecular Probes) or Cy3-binding anti-mouse IgG donkey antibody (Jackson Immuno Research Laboratories Inc.) was added to each well, and the whole was then incubated at 4° C. for 4 hours. […]

diabetes model mouse = assay: Transplanting cultured jejunum into STZ diabetes model mouse, blood sugar level; assay type: in vivo
Experimental: (§3) The jejunum collected from a 14.5-day embryonal mouse was embedded in type I collagen gel (Nitta Gelatin Inc.) and was then grown in organ culture in the presence of 50 nM GLP-1(1-37) and 50 nM PDGF (Platelet Derived Growth Factor). The amount of insulin in the culture medium was determined using a mouse insulin-detecting kit (Shibayagi) according to the attached protocol.
The jejunum at the second day from the start of the organ culture was transplanted in the abdominal cavity of a diabetes model mouse. The mouse was changed to a type I diabetes model by the administration of 200 mg/kg streptozotocin (hereinafter, referred to as “STZ”) three days before the transplantation, and the blood sugar level of the mouse was 300 to 350 mg/dl. Similarly, jejunal cells cultured in the absence of GLP-1 (1-37) were transplanted into a diabetes model mouse.

jejunal cells = assay: Comparison between GLP-1 and other growth factors, RT-PCR in jejunal cells; assay type: cell-based, mouse; settings: GLP-1(1-37) 10 nm/l with activin A, beta cellulin, HGF, EGF; 8 days
Experimental: In the presence or absence of GLP-1(1-37) (10 nm/l), jejunal cells were cultured by the same way as that of paragraph <1>, except that activin A, beta cellulin, hepatocyte growth factor (HGF), and epidermal growth factor (EGF), which had been reported to control the growth and differentiation of secretory cells in the pancreas, were added. Then, the expression amounts of various kinds of genes were analyzed (a culture period of 8 days).

[2] = system: preproinsulin I and preproinsulin II mRNA; assay: Insulin gene expression in organs of GLP-1(1-37)-administered STZ diabetes model rat (RT-PCR); assay type: in vivo; settings: 80 μg/head i.p. once a day for ten days, 42nd day
Experimental: GLP-1(1-37) was confirmed to have the blood sugar decrease effect, so that the presence or absence of insulin production in the intestine of the GLP-1(1-37) administered group was determined by the method described below. GLP-1(1-37)(80 μg/head) or PBS was intraperitoneally administered to each of 6 Wistar male rats once a day over a ten-day […] period from day 2 to 12. On the 7th day of the administration (9-day old), 75 mg/kg of STZ was subcutaneously administered to induce diabetes. In order to prepare normal controls, some PBS-administered rats were administered citrate buffer instead of STZ. Subsequently, the rats were allowed to ingest feed and water freely. On the 42nd day, autopsy was performed to collect the pancreas, stomach, intestine, and lung. After RNA was prepared from each organ using ISOGEN (NIPPONGENE), mRNA of preproinsulin I and mRNA of preproinsulin II were quantified by the RT-PCR method. Oligonuculeotides shown in SEQ ID NOS: 24 and 25 were used for preproinsulin I, and oligonuculeotides shown in SEQ ID NOS: 26 and […] were used for preproinsulin II as PCR primers.

STZ diabetes model rat = assay: Blood sugar decrease effect on STZ diabetes model rat; assay type: in vivo
Experimental: GLP-1 (1-37) (80 μg/head) or PBS was intraperitoneally administered to a Wistar male rat once a day over a ten-day period from day 2-12 after birth. On the 7th day of the administration (9-day old), 75 mg/kg of STZ was subcutaneously administered to induce diabetes. In order to prepare normal controls, some PBS-administered rats were administered citrate buffer instead of STZ. Subsequently, the rats were allowed to ingest feed and water freely. In the 42nd day, blood of each rat was drawn from the tail vein and the blood sugar level was measured. The measurement of the blood sugar level was performed using the whole blood sample by the glucose oxidase method in accordance with a general method.

[3] = system: intestinal epithelium cells; assay: In vivo GLP-1(1-37) administration to pregnant mouse, insulin/glucagon immunostain of newborn intestine sections; settings: 10 nmol i.p. to pregnant mouse daily, embryonal day 10.5 to 17.5
Experimental: GLP-1(1-37) (10 nmol) was intraperitoneally injected to a pregnant mouse at the same time every day over a seven-day embryonal period from day 10.5 to 17.5. After birth, tissue sections from the small and large intestine of a newborn mouse were double-stained using antibodies to insulin and glucagon. Specifically, the double stain was performed as follows.
Each tissue of the small intestine (including jejunum and ileum) and the large intestine was immersed overnight in a 4% paraformaldehyde-phosphate buffer at 4° C., followed by embedding in O.C.T. compound to prepare section samples. The section samples were dried and fixed with acetone. Subsequently, the section samples were dried overnight at −20° C. and then washed with PBS-Tween 20, followed by immersing in 0.2% Triton X100 for 1 hour. After that, using anti-insulin goat antibody (Santa Cruz) or anti-glucagon mouse antibody (Sigma), and Alexa 488-binding anti-goat IgG donkey antibody or Cy3-binding anti-mouse IgG donkey antibody, the immunostain of insulin and glucagon was carried out, respectively.

[4] = system: cultured intestinal cells; assay: RT-PCR gene expression in organ culture of jejunum, concentration-dependent effects; assay type: cell-based, mouse; settings: 8 days
Experimental: Using a quantitative PCR method, the effects of GLP-1(1-37) on the cultured intestinal cells were analyzed in detail as described below.
Four concentrations of GLP-1(1-37), 0, 5, 10, and 50 nmol/l, were prepared and the organ culture of jejunum was performed by the same way as that of Example 3. After the jejunum had been cultured for 8 days, analyzed using the RT-PCR were the expression amounts of insulin genes (preproinsulin I and preproinsulin II), transcription factor group [neurogenin 3 (ngn3), neuroD/BETA 2, pax-4, Nkx 6.1, and hepatocyte nuclear factor 6 (HNF-6)] that controls the differentiation of secretory cells in the pancreas, a GLP-1 receptor (GLP-1 R), preproglucagon, pancreas duodenal homobox 1 (pdx-1), and hypoxanthine phosphoribosyl transferase (HPRT) as a positive control.
The RT-PCR was performed according to the method described in the literature (Hepatology, 32: 1230-1239) using primers. The primers used herein were as follows.
GLP-1R (SEQ ID NOS: 3 and 4), preproinsulin 1 (SEQ ID NOS: 5 and 6), preproinsulin II (SEQ ID NOS: 7 and 8), preproglucagon (SEQ ID NOS: 9 and 10), pdx-1 (SEQ ID NOS: 11 and 12), ngn3 (SEQ ID NOS: 13 and 14), neuroD (SEQ ID NOS: 15 and 16), pax-4 (SEQ ID NOS: 17 and 18), Nkx 6.1 (SEQ ID NOS: 19 and 20), HNF-6 (SEQ ID NOS: 21 and 22), and HPRT (SEQ ID NOS: 23 and 24).

[5] = background art; cited from earlier work
jejunum = assay: Organ culture of embryonal mouse jejunum, insulin in the culture medium; assay type: cell-based; settings: 50 nM GLP-1(1-37) with 50 nM PDGF, jejunum of 14.5-day embryonal mouse in collagen gel
Experimental: as §3

[6] = STZ mouse transplanted with jejunal cells treated with GLP-1(1-37), baseline 300 to 350 mg/dl

Substance: exendin (9-39)
- expression of preproinsulin I, preproinsulin II, and ngn3 (GLP-1R; exendin (9-39) 10, 100 or 1,000 nmol/l added together with GLP-1(1-37) 10 nmol/l): hardly observed
- expression of preproglucagon and pdx-1 (GLP-1R; exendin (9-39) added together with GLP-1(1-37) 10 nmol/l): not influenced

Substance: GLP-1(7-37) (HAEGTFTSDVSSYLEGQAAKEFIAWLVKGRG; Glucagon-like peptide 1; UniProt P01275 98-128, looked up, fragment) [reference compound]
- number of insulin-positive cells and glucagon-positive cells versus non-addition group [1]: no difference
- generation of insulin-positive cells in intestinal cells (intestinal cells): can not effect on the induction

Substance: GLP-1(1-37): 37-amino acid peptide having the amino acid sequence from position 92 to position 128 of a preproglucagon peptide; purchased from SIGMA (HDEFERHAEGTFTSDVSSYLEGQAAKEFIAWLVKGRG; Glucagon-like peptide 1; UniProt P01275 92-128, looked up, fragment)
- number of insulin-positive cells and glucagon-positive cells versus non-addition group [1]: no difference
- glucagon staining of the insulin-positive cells (intestinal cells): strongly glucagon-positive
- generation of insulin-positive cells in intestinal cells (intestinal cells): insulin-positive cells were only observed; also recorded: effects on the induction
- change of blood sugar level after transplantation (diabetes model mouse; STZ mouse (300 to 350 mg/dl) transplanted with jejunal cells treated with GLP-1(1-37)): decrease in blood sugar level was observed
- blood sugar level after eight weeks from the transplantation (diabetes model mouse; [6]): 75 to 100 mg/dL
- blood sugar level after four weeks from the transplantation (diabetes model mouse; [6]): 125 to 225 mg/dL
- expression of preproglucagon and pdx-1 (jejunal cells): no change
- expression of preproinsulin I, preproinsulin II, and ngn3 (jejunal cells): high expression
- expression of preproinsulin genes in the pancreas, stomach, and lung [2]: no expression was observed
- expressions of preproinsulin I gene and preproinsulin II gene in the intestine [2]: significantly increased
- blood sugar level compared to diabetes control group (STZ diabetes model rat; 80 μg/head i.p. once a day for ten days, 42nd day): decreased significantly
- blood sugar level (STZ diabetes model rat; 80 μg/head i.p. once a day, day 2-12 after birth, STZ 75 mg/kg s.c., measured 42nd day, n = 6): 430 ± 89 ^##
- insulin-positive intestinal epithelium cells in small and large intestine of newborn mouse [3]: many insulin-positive intestinal epithelium cells were observed
- number of insulin positive cells, small intestine compared with large intestine [3]: higher
- expression of GLP-1R, preproglucagon and pdx-1 versus non addition group ([4]; 0, 5, 10, 50 nmol/l): no change in expression
- expression of transcription factor group controlling differentiation of secretory cells in the pancreas ([4]; 0, 5, 10, 50 nmol/l): increase in expression
- expression of the insulin gene (preproinsulin I, preproinsulin II) ([4]; 5 nmol/l, FIG. 1): expression of the insulin gene was observed
- activity as incretin [5]: weak activity
- insulin secretion into the culture medium (jejunum): insulin secretion was observed
